Results published in patent publication US5369111A, “Modulator agent and use thereof” (University of Vermont, priority 1992, dated 1994).

Columns and labels:
RCC-2 and RCC-5 cells = assay: Inhibition of population growth of rat colon cancer cell lines RCC-2 and RCC-5; type: cell-based; settings: RCC-2 and RCC-5
Excerpt: The analogs were examined in a panel of tumor cell lines of both intrinsic and acquired drug resistance, as described in Table 1. The rat colon adenocarcinoma cell lines RCC-2 and RCC-5 (ref. 13) were maintained in Ham's F12 medium supplemented with 5% heat-inactivated, fetal bovine serum (Sterile Systems. Hyclone, Logan, Utah). The two rat colon cancer cell lines differ in their degree of cellular differentiation; whereas the RCC-2 cell line is undifferentiated, the RCC-5 cell line is highly mucinous. The human epidermoid carcinoma cell line KB-3-1 and its MDR variant KB-Vl, selected by VBL treatment (ref. 14; courtesy of M. Gottesman. National Cancer Institute), was maintained in DMEM medium supplemented with 10%, heat-inactivated, fetal bovine serum. […]
Mid-exponential cultures were used for all assays. […] Cytotoxicity was determined by quantitation of population growth after 72 h incubation by electronic particle counter (Coulter Electronics, Hialeah, Fla.). […] Colonies were scored 7-11 days later. […]
FIG. 7 represents the toxicity of analog C-20'-deoxy vincovaline (A) and C-20'-deoxy deethyl vincovaline (B) to population growth of the rat colon adenocarcinoma cell lines. The congener was added at various concentrations to RCC-2 (.cndot.) and RCC-5 (Δ) cell cultures and the population cell number was determined 72 hours later. […]

S180 cells, parental = assay: Modulation of intrinsic drug resistance, parental S180; type: cell-based, murine; settings: S180 parental
Outline: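 Parental S180 cells at 1×10^5 cells/ml treated with modulator (10^-6 M up to non-toxic IC10-20 or solubility limit) added minutes before VBL, VCR or ADM; growth counted electronically after 72 h. Sensitivity index = drug IC50 alone / drug IC50 with modulator; duplicates from two experiments.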

KB-3-1 cells = assay: Modulation of drug sensitivity, KB-3-1; type: cell-based, human; settings: ADM, VBL, VCR
Description: (§1) Mid-exponential cultures were used for all assays. The RCC-2 and RCC-5 cell lines were seeded into 24-well plates at 2×10^4 cells/well and allowed to attach to the substratum for 16-18 h prior to treatment. The S180 cell lines were seeded into culture tubes at 1×10^5 cells/ml and treated immediately. Cytotoxicity was determined by quantitation of population growth after 72 h incubation by electronic particle counter (Coulter Electronics, Hialeah, Fla.). The human tumor cell lines were used in a clonogenic assay for cytotoxicity. Cells were seeded at 300 cells/dish, incubated overnight and then treated. Colonies were scored 7-11 days later. In all assays of analog modulation of drug sensitivity, the analog was added minutes prior to the addition of cytotoxic drug.
(§2) FIG. 10 represents the potency of the analog C-20'-deoxy deethyl vincovaline as a modulator of the drug sensitivity of various cell lines: the parental S180 cell line: the two rat colon cancer cell lines, RCC-2 and RCC-5; and the human epidermoid carcinoma cell line KB-3-1 and its MDR cell strain KB-V1, which expresses very high levels of drug resistance (200-500 fold). The enhancement of sensitivity was calculated as the sensitivity index =IC50 of the drug alone divided by the IC50 of the drug+analog. […] The cytotoxicity of drug and analog treatments in the KB cell lines were measured by cloning efficiencies. […]

KB-V1 cells = assay: Modulation of acquired resistance, KB-V1; type: cell-based, human; settings: at the non-toxic concentration limit of 20 μM
Description: as §1, §2

S180/A10 cells = assay: Modulator potency in MDR cells: reversal of acquired resistance, S180/A10; type: cell-based, murine
Outline: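 S180/A3 and S180/A10 MDR cells at 1×10^5 cells/ml exposed to a modulator concentration range, added minutes before VBL, VCR or ADM at parental-cell IC70s. Growth counted by electronic particle counter after 72 h. Value is the minimal modulator concentration restoring 70% growth inhibition; mean of 2-3 experiments.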

SMILES: CC[C@]12C=CCN3CC[C@@]4(c5cc([C@]6(C(=O)OC)C[C@H]7CCCN(CCc8c6[nH]c6ccccc86)C7)c(OC)cc5N(C)[C@H]4[C@@](O)(C(=O)OC)[C@@H]1OC(C)=O)[C@@H]32 [analog n° 352, C-20'-deoxy-20'-deethyl-C-14', 16'-epi-VBL]
- reduction in cytotoxicity to the colon cancer cell lines compared to C-20'-deoxy vincovaline (RCC-2 and RCC-5 cells): 10 fold
- maximum degree of sensitization to ADM (S180 cells, parental; ADM): 5.5 fold
- maximum degree of sensitization to VBL and VCR (S180 cells, parental; VBL and VCR): 2.3-2.7 fold
- sensitization to all three drugs (KB-3-1 cells): 3-5 fold
- sensitization to VCR only (KB-V1 cells): 6 fold
- reversal of high level ADM resistance (in words) (S180/A10 cells; A10 cells, 90 fold ADM resistance): can reverse high level (90-fold) ADM resistance in MDR cells
- reversal of high level ADM resistance (S180/A10 cells; ADM, 90-fold resistance, A10): 80%
